Columns and labels:
bile secretion = experiment: Cholagogic action, bile secretion (Experimental Example 5); type: in vivo, male Wistar rats; conditions: intraduodenal
Protocol: After male Wistar rats 7 weeks old were fasted for 24 hours, they were anesthetized by the interperitoneal administration of 1.25 g/kg (volume 2 m.iota./kg) of urethane. A polyethylene canula (SP-10, a product of Natsume Seisakusho) was inserted into a bile duct and after the bile was caused to flow out for 30 minutes, the bile was collected in the cource of 1 hour. Thereafter, each test drug was suspended or dissolved in a 1% aqueous Tween-80 solution, and was administered into the duodenum at a rate of 5 m.iota./kg. Furthermore, the bile was collected every hour in the course of five hours, and its weight was measured. Only a 1% Tween-80 solution was given as a control.
The results are tabulated in Tables 6, 7, 8, 9 and 10, wherein the bile secretion amount every hour was represented by a percentage with the bile secretion amount (mg) one hour before the dose of the test drug being 100.

Acute toxicity test = conditions: mouse, in vivo, ip; male S.P.P. mice, abdominally administered; Table 11
Protocol: The acute toxicity test was carried out by abdominally administering each test drug to male S.P.P. mice and determining an LD50 value.

hyperlipemia = experiment: Anti-hyperlipemia test in rats on high fat food (Experimental Example 1); type: in vivo, Male Wistar rats; conditions: peroral once a day, two weeks, control 100, Table 1
Description: Male Wistar rats 6.5 weeks old were allowed to freely intake a high fat food (containing 1% of cholesterol, 0.5% of sodium cholate, 12% of beef tallow and 20% of standard chow) in the cource of two weeks, to thus cause an outbreak of hyperlipemia. The dose of the drug was started simultaneously with the application of the high fat food, and was perorally given once a day through a stomach tube until the end of the experiment. The drugs were all suspended in a cane sugar fatty acid ester and were administered. The oily compounds were adjusted in advance to 100 mg/m.iota. by diethyl ether. A suitable amount was collected at the time of the dose and after diethyl ether was evaporated and removed, it was suspended in a cane sugar fatty acid ester (1% ryoto sugar ester) and then given. After the final dose of the drug, the rats were fasted for about 18 hours, and the blood was sampled to measure the blood serum lipid. The blood serum lipid was measured by using a TBA-380 biochemical analyzer (a product of Toshiba Medical Co.,) unless a particular hindrance occurred.

[1] = 0-1 hour after dose, control 81.1, Table 9
[2] = 1-2 hour after dose, control 66.6, Table 9
[3] = 2-3 hour after dose, control 55.8, Table 9
[4] = 3-4 hour after dose, control 49.0, Table 9
[5] = 4-5 hour after dose, control 42.8, Table 9

Compound | LD50 (Acute toxicity test) [mg/kg] | Bile secretion amount, percentage of the hour before dose (bile secretion; [1]) [%] | Bile secretion amount, percentage of the hour before dose (bile secretion; [2]) [%] | Bile secretion amount, percentage of the hour before dose (bile secretion; [3]) [%] | Bile secretion amount, percentage of the hour before dose (bile secretion; [4]) [%] | Bile secretion amount, percentage of the hour before dose (bile secretion; [5]) [%] | other results
COC(=O)C1=COC(O)[C@@H]2[C@@H](CO)CC[C@H]12 (stereo partly drawn) [Definite Example 6, methyl (4aS, 7S, 7aS)-1,4a, 5,6,7,7a-hexahydro-1-hydroxy-7-(hydroxymethyl)cyclopenta[c]pyran-4-carboxylate] | 406 |  |  |  |  |  | Bile secretion amount, percentage of the hour before dose (bile secretion; 0-1 hour after dose, control 84.1, Table 8): 111.4%; Bile secretion amount, percentage of the hour before dose (bile secretion; 1-2 hour after dose, control 72.5, Table 8): 78.0%; Bile secretion amount, percentage of the hour before dose (bile secretion; 2-3 hour after dose, control 63.8, Table 8): 66.7%; Bile secretion amount, percentage of the hour before dose (bile secretion; 3-4 hour after dose, control 56.7, Table 8): 55.2%; Bile secretion amount, percentage of the hour before dose (bile secretion; 4-5 hour after dose, control 51.2, Table 8): 50.3%; Blood serum cholesterol (%) (hyperlipemia; 10 mg/kg): 79.6%; Blood serum triglyceride (%) (hyperlipemia; 10 mg/kg): 86.7%; Blood serum cholesterol (%) (hyperlipemia; 30 mg/kg): 85.4%; Blood serum triglyceride (%) (hyperlipemia; 30 mg/kg): 80.4%
COC(=O)C1=COC(=O)[C@@H]2C(CO)=CC[C@H]12 [Definite Example 20, methyl (4aS, 7aS)-1,4a, 5,7a-tetrahydro-7-(hydroxymethyl)-1-oxocyclopenta[c]pyran-4-carboxylate] |  | 82.6 | 66.8 | 55.1 | 48.6 | 42.8 | 
COC(=O)C1=COC(=O)[C@@H]2C(CO[Si](C)(C)C(C)(C)C)=CC[C@H]12 [Definite Example 19] | 355 |  |  |  |  |  | 
OCC1=CC[C@@H]2C(CO)=CO[C@@H](OC3CCCCO3)[C@H]12 (stereo partly drawn) [Definite Example 17, (1S, 4aS, 7aS)-4,7-bis (hydroxymethyl)-1,4a, 5,7a-tetrahydro-1-(2-tetrahydropyranyloxy)cyclopenta[c]pyran] |  |  |  |  |  |  | Bile secretion amount, percentage of the hour before dose (bile secretion; 0-1 hour after dose, control 82.9, Table 10): 115.7%; Bile secretion amount, percentage of the hour before dose (bile secretion; 1-2 hour after dose, control 74.1, Table 10): 77.3%; Bile secretion amount, percentage of the hour before dose (bile secretion; 2-3 hour after dose, control 66.1, Table 10): 62.9%; Bile secretion amount, percentage of the hour before dose (bile secretion; 3-4 hour after dose, control 59.8, Table 10): 54.0%; Bile secretion amount, percentage of the hour before dose (bile secretion; 4-5 hour after dose, control 53.3, Table 10): 47.2%
COC(=O)C1=CO[C@@H](O[C@@H]2O[C@H](CO)[C@@H](O)[C@H](O)[C@H]2O)[C@@H]2C(C)=CC[C@H]12 [Definite Example 8, methyl (1S, 4aS, 7aS)-1-(β-D-glucopyranosyloxy)-1,4a, 5,7a-tetrahydro-7-methylcyclopenta[c]pyran-4-carboxylate] |  | 85.0 | 71.7 | 60.1 | 50.6 | 44.4 | Blood serum cholesterol (%) (hyperlipemia; 10 mg/kg): 94.4%; Blood serum triglyceride (%) (hyperlipemia; 10 mg/kg): 82.5%; Blood serum cholesterol (%) (hyperlipemia; 30 mg/kg): 54.8%; Blood serum triglyceride (%) (hyperlipemia; 30 mg/kg): 68.7%
COC(=O)C1=COC2OCC3CCC1C32 [Definite Example 12, methyl (iS, 4aS, 7R, 7aS)-1,7-(epoxymethano)-1,4a, 5,6,7,7a-hexahydrocyclopenta[c]pyran-4-carboxylate] | 527 |  |  |  |  |  | 
OCC1=CC[C@@H]2C(CO)=CO[C@@H](OC3CCCCO3)[C@H]12 (stereo partly drawn) [Definite Example 18, (1S, 4aS, 7aS)-4,7-bis(hydroxymethyl)-1,4a, 5,7a-tetrahydro-1-(2-tetrahydropyranyloxy)cyclopenta[c]pyran] | 559 | 91.3 | 74.6 | 60.3 | 51.1 | 44.1 | 
CC(C)(C)[Si](C)(C)OCC1=CC[C@@H]2C(CO)=CO[C@@H](O[Si](C)(C)C(C)(C)C)[C@H]12 [Definite Example 34, (1S, 4aS, 7aS)-1-(tert-butyldimethylsilyloxy)-7-[(tert-butyldimethylsilyloxy)methyl]-1,4a, 5,7a-tetrahydro-4-(hydroxymethyl)cyclopenta[c]pyran] | 511 |  |  |  |  |  | 
COC(=O)C1=CO[C@@H](O[C@@H]2O[C@H](COC(C)=O)[C@@H](OC(C)=O)[C@H](OC(C)=O)[C@H]2OC(C)=O)[C@@H]2C(C)=CC[C@H]12 [Definite Example 7, methyl (1S, 4aS, 7aS)-1-(2,3,4,6-tetra-O-acetyl-β-D-glucopyranosyloxy)-1,4a, 5,7a-tetrahydro-7-methylcyclopenta[c]pyran-4-carboxylate] | 382 |  |  |  |  |  | Blood serum cholesterol (%) (hyperlipemia; 10 mg/kg): 94.4%; Blood serum triglyceride (%) (hyperlipemia; 10 mg/kg): 96.9%; Blood serum cholesterol (%) (hyperlipemia; 30 mg/kg): 105%; Blood serum triglyceride (%) (hyperlipemia; 30 mg/kg): 64.6%
COC(=O)C1=COC(=O)[C@@H]2C(CO[Si](c3ccccc3)(c3ccccc3)C(C)(C)C)=CC[C@H]12 [Definite Example 28, methyl (4aS, 7aS)-7-[(tert-butyldiphenylsilyloxy)methyl]-1,4a, 5,7a-tetrahydro-1-oxocyclopenta[c]pyran-4-carboxylate] | 406 |  |  |  |  |  | 
COC(=O)C1=COC(=O)[C@H]2[C@@H]1CC[C@@H]2C [Definite Example 5, methyl (4aS, 7S, 7aR)-1,4a, 5,6,7,7a-hexahydro-7-methyl-1-oxocyclopenta[c]pyran-4-carboxylate] |  | 105.0 | 78.0 | 62.0 | 52.6 | 45.1 | 
COC(=O)C1=COC(O)[C@H]2[C@@H]1CC1OC12C (stereo partly drawn) [Definite Example 35, methyl (4aS, 7aS)-6,7-epoxy-1,4a,5,6,7,7a-hexahydro-1-hydroxy-7-methylcyclopenta[c]pyran-4-carboxylate] |  |  |  |  |  |  | Bile secretion amount, percentage of the hour before dose (bile secretion; 0-1 hour after dose, control 87.7, Table 7): 110.4%; Bile secretion amount, percentage of the hour before dose (bile secretion; 1-2 hour after dose, control 75.3, Table 7): 85.2%; Bile secretion amount, percentage of the hour before dose (bile secretion; 2-3 hour after dose, control 65.0, Table 7): 71.4%; Bile secretion amount, percentage of the hour before dose (bile secretion; 3-4 hour after dose, control 58.7, Table 7): 61.1%; Bile secretion amount, percentage of the hour before dose (bile secretion; 4-5 hour after dose, control 51.8, Table 7): 53.5%
COC(=O)C1=CO[C@@H](OC2CCCCO2)[C@@H]2C(CO)=CC[C@H]12 (single isomer, unassigned) [Definite Example 16] | 412 |  |  |  |  |  | 

From patent US5459160A, “Iridoid derivatives and the use thereof as a drug” (Tsumura & Co., priority 1990, dated 1995)
